For 45 compounds, IC50 results are on record in patent publication US20250120927A1, “CNDP2 MODULATORS AND METHODS FOR THEIR USE” (Metabolon Inc., priority 2023, published 2025).

The target in the experiment is CNDP2 (Homo sapiens (Human), UniProt Q96KP4). Kind of experiment: CNDP2 enzyme inhibition assay (Met-His hydrolysis, free histidine by o-phthaldialdehyde fluorescence), dose-response. Format: biochemical. To be noted: 50 nM purified CNDP2 (Sino Biological), 1 mM Met-His substrate, 30 minutes at 37° C.; TABLE 1. Here is the method: To identify optimal conditions for identifying novel inhibitors of CNDP2, enzyme assays were performed with varied sources of purified enzyme, concentrations of enzyme, peptide substrates, concentrations of peptide substrates and metal cofactors. […] The reaction mixture was incubated for 30 minutes at 37° C. before it was quenched with an equal volume of 1% TCA. Free histidine was quantified after derivatization with a fluorophore (o-phthaldialdehyde from Sigma-Aldrich, excitation 340 nm, emission 460 nm). The reaction was conducted in an automation-friendly format to meet future screening throughput demands. A histidine titration standard curve was also included to enable conversion of fluorescence signal to molar concentration of histidine released by the hydrolysis reaction and to ensure the linearity of the fluorescence signal vs. free histidine.
Chain of CNDP2 (Q96KP4 whole entry): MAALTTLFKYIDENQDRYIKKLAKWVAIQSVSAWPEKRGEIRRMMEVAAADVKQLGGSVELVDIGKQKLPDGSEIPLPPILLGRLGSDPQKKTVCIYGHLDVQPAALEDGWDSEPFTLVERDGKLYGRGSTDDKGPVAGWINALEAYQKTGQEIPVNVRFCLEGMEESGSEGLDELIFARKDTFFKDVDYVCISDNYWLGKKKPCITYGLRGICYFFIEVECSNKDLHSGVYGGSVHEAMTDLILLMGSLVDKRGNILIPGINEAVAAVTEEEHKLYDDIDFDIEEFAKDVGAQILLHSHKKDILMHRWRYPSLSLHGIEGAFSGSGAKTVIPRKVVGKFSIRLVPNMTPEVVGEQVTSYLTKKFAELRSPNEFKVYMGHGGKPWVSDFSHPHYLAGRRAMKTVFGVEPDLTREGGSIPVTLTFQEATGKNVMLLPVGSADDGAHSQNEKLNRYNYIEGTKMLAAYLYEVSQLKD
Compounds of Formula (I) disclosed herein were screened for potency in inhibiting CNDP2 enzyme activity in a dose-response experiment. Bestatin was included with each batch of test molecules as a benchmark for assay quality control.
Turning to `N[C@H](Cc1ccccc1)[C@H](O)C(=O)N[C@@H](Cc1ccc(F)cc1)C(=O)O` [Compound 1, (S)-2-((2S,3R)-3-amino-2-hydroxy-4-phenylbutanamido)-3-(4-fluorophenyl)propanoic acid], the IC50 – broadly, the concentration that gives 50% inhibition – was not below 1000 nM. On to `N[C@H](Cc1ccccc1)[C@H](O)C(=O)NC(C(=O)O)c1ccccc1` (stereo partly drawn) [Compound 3, 2-[[(2S,3R)-3-amino-2-hydroxy-4-phenyl-butanoyl]amino]-2-phenyl-acetic acid], for which the IC50 was not below 1000 nM. On to `N[C@H](Cc1ccccc1)[C@H](O)C(=O)N[C@H](C(=O)O)C1CCCC1` [Compound 4, (2S)-2-[[(2S,3R)-3-amino-2-hydroxy-4-phenyl-butanoyl]amino]-2-cyclopentyl-acetic acid], for which the IC50 lay within 100 to 1000 nM.

`N[C@H](Cc1ccccc1)[C@H](O)C(=O)N[C@H](C(=O)O)C1CCCCC1` [Compound 5, (2S)-2-[[(2S,3R)-3-amino-2-hydroxy-4-phenyl-butanoyl]amino]-2-cyclohexyl-acetic acid] came in with an IC50 of 100 to 1000 nM.

For `COc1ccccc1[C@H](NC(=O)[C@@H](O)[C@H](N)Cc1ccccc1)C(=O)O` [Compound 8, (2S)-2-[[(2S,3R)-3-amino-2-hydroxy-4-phenyl-butanoyl]amino]-2-(2-methoxyphenyl)acetic acid], the IC50 was not below 1000 nM. The compound `N[C@H](Cc1ccccc1)[C@H](O)C(=O)N[C@H](C(=O)O)c1cccnc1` [Compound 9, (2S)-2-[[(2S,3R)-3-amino-2-hydroxy-4-phenyl-butanoyl]amino]-2-(3-pyridyl)acetic acid] returned a half-inhibitory concentration (IC50) not below 1000 nM. As to `N[C@H](Cc1ccccc1)[C@H](O)C(=O)NC(C(=O)O)c1cccc(C(F)(F)F)c1` (stereo partly drawn) [Compound 10, 2-[[(2S,3R)-3-amino-2-hydroxy-4-phenyl-butanoyl]amino]-2-[3-(trifluoromethyl)phenyl]acetic acid], the IC50 was less than 100 nM. The compound `N[C@H](Cc1ccccc1)[C@H](O)C(=O)N[C@@H](Cc1ccccc1C(F)(F)F)C(=O)O` [Compound 11, 2-[[(2S,3R)-3-amino-2-hydroxy-4-phenyl-butanoyl]amino]-3-[2-(trifluoromethyl)phenyl]propanoic acid] displayed an IC50 not below 1000 nM. The compound `CC(c1ccccc1)[C@H](NC(=O)[C@@H](O)[C@H](N)Cc1ccccc1)C(=O)O` (stereo partly drawn) [Compound 14, 2-[[(2S,3R)-3-amino-2-hydroxy-4-phenyl-butanoyl]amino]-3-phenyl-butanoic acid] came in with an IC50 not below 1000 nM.

`N[C@H](Cc1ccccc1)[C@H](O)C(=O)NC1(C(=O)O)CCCC1` [Compound 15, 1-[[(2S,3R)-3-amino-2-hydroxy-4-phenyl-butanoyl]amino]cyclopentane carboxylic acid] yielded an IC50 not below 1000 nM. For `N[C@H](Cc1ccccc1)[C@H](O)C(=O)NC(Cc1ccc(C(F)(F)F)cc1)C(=O)O` (stereo partly drawn) [Compound 16, 2-[[(2S,3R)-3-amino-2-hydroxy-4-phenyl-butanoyl]amino]-3-[4-(trifluoromethyl)phenyl]propanoic acid] the value was 100 to 1000 nM; for `N[C@H](Cc1ccccc1)[C@H](O)C(=O)NC(CC1CCCC1)C(=O)O` (stereo partly drawn) [Compound 17, 2-[[(2S,3R)-3-amino-2-hydroxy-4-phenyl-butanoyl]amino]-3-cyclopentyl-propanoic acid], less than 100 nM; for `COc1ccc(C[C@H](NC(=O)[C@@H](O)[C@H](N)Cc2ccccc2)C(=O)O)cc1` [Compound 18, (2S)-2-[[(2S,3R)-3-amino-2-hydroxy-4-phenyl-butanoyl]amino]-3-(4-methoxyphenyl)propanoic acid], not below 1000 nM. Turning to `N[C@H](Cc1ccccc1)[C@H](O)C(=O)N[C@@H](Cc1ccc(O)cc1)C(=O)O` [Compound 19, 2-[[(2S,3R)-3-amino-2-hydroxy-4-phenyl-butanoyl]amino]-3-(4-hydroxyphenyl)propanoic acid], the IC50 is not below 1000 nM. For `N[C@H](Cc1ccccc1)[C@H](O)C(=O)N[C@H](C(=O)O)C1CCC1` [Compound 20, (2S)-2-[[(2S,3R)-3-amino-2-hydroxy-4-phenyl-butanoyl]amino]-2-cyclobutyl-acetic acid] the value was not below 1000 nM; for `N[C@H](Cc1ccccc1)[C@H](O)C(=O)N[C@H](C(=O)O)C1CCOCC1` [Compound 21, 2-[[(2S,3R)-3-amino-2-hydroxy-4-phenyl-butanoyl]amino]-2-tetrahydropyran-4-yl-acetic acid], not below 1000 nM; for `N[C@H](Cc1ccccc1)[C@H](O)C(=O)NC(CC1CC(F)(F)C1)C(=O)O` (stereo partly drawn) [Compound 22, 2-[[(2S,3R)-3-amino-2-hydroxy-4-phenyl-butanoyl]amino]-3-(3,3-difluorocyclobutyl)propanoic acid], not below 1000 nM. For `N[C@H](Cc1ccccc1)[C@H](O)C(=O)NC(CC1CCOCC1)C(=O)O` (stereo partly drawn) [Compound 23, 2-[[(2S,3R)-3-amino-2-hydroxy-4-phenyl-butanoyl]amino]-3-tetrahydropyran-4-yl-propanoic acid] the value was less than 100 nM; for `CCC(c1ccccc1)C(NC(=O)[C@@H](O)[C@H](N)Cc1ccccc1)C(=O)O` (stereo partly drawn) [Compound 24, 2-[[(2S,3R)-3-amino-2-hydroxy-4-phenyl-butanoyl]amino]-3-phenyl-pentanoic acid], not below 1000 nM.

Turning to `N[C@H](Cc1ccccc1)[C@H](O)C(=O)N[C@@H](Cc1ccc(Br)cc1)C(=O)O` [Compound 25, 2-[[(2S,3R)-3-amino-2-hydroxy-4-phenyl-butanoyl]amino]-3-(4-bromophenyl)propanoic acid], the IC50 was less than 100 nM. For `N[C@H](Cc1ccccc1)[C@H](O)C(=O)N[C@@H](Cc1ccccc1Br)C(=O)O` [Compound 26, 2-[[(2S,3R)-3-amino-2-hydroxy-4-phenyl-butanoyl]amino]-3-(2-bromophenyl)propanoic acid], the IC50 was not below 1000 nM. In turn, `N[C@H](Cc1ccccc1)[C@H](O)C(=O)NC(C(=O)O)c1ccccc1C(F)(F)F` (stereo partly drawn) [Compound 27] gave an IC50 not below 1000 nM.

Turning to `N[C@H](Cc1ccccc1)[C@H](O)C(=O)NC(C(=O)O)C1CCNCC1` (stereo partly drawn) [Compound 29], the IC50 was not below 1000 nM. `N[C@H](Cc1ccccc1)[C@H](O)C(=O)NC(C(=O)O)C1CCCCCC1` (stereo partly drawn) [Compound 30] displayed an IC50 of 100 to 1000 nM. Take `N[C@H](Cc1ccccc1)[C@H](O)C(=O)N[C@H](C(=O)O)c1cccc(OC(F)(F)F)c1` [Compound 31, (S)-2-((2S,3R)-3-amino-2-hydroxy-4-phenylbutanamido)-2-(3-(trifluoromethoxy)phenyl)acetic acid]: the IC50 is less than 100 nM. Compound `COc1cccc(C(NC(=O)[C@@H](O)[C@H](N)Cc2ccccc2)C(=O)O)c1` (stereo partly drawn) [Compound 32] had an IC50 not below 1000 nM. The compound `N[C@H](Cc1ccccc1)[C@H](O)C(=O)N[C@@H](Cc1cccc(Br)c1)C(=O)O` [Compound 33] showed an IC50 not below 1000 nM. For `N[C@H](Cc1ccccc1)[C@H](O)C(=O)N[C@H](C(=O)O)C1CCC(F)(F)CC1` [Compound 34], the IC50 is 100 to 1000 nM. Regarding `N[C@H](Cc1ccccc1)[C@H](O)C(=O)N[C@@H](C(=O)O)c1cccc(C(F)(F)F)c1` [Compound 35], the IC50 was not below 1000 nM. Take `N[C@H](Cc1ccccc1)[C@H](O)C(=O)N[C@H](C(=O)O)c1cccc(C(F)(F)F)c1` [Compound 36]: the IC50 is less than 100 nM. The compound `CC1(C)CC(C(NC(=O)[C@@H](O)[C@H](N)Cc2ccccc2)C(=O)O)CCO1` (stereo partly drawn) [Compound 38] gave an IC50 not below 1000 nM. The compound `CC(C)C[C@H](NC(=O)[C@@H](O)[C@H](N)Cc1ccc(Br)cc1)C(=O)O` [Compound 39] came in with an IC50 not below 1000 nM. As to `CC(C)C[C@H](NC(=O)[C@@H](O)[C@H](N)Cc1ccccc1Br)C(=O)O` [Compound 40], the IC50 was not below 1000 nM. For `CC(C)C[C@H](NC(=O)[C@@H](O)[C@H](N)Cc1cccc(Br)c1)C(=O)O` [Compound 41] the value was not below 1000 nM.

As for `NC(=O)C(NC(=O)[C@@H](O)[C@H](N)Cc1ccccc1)c1cccc(C(F)(F)F)c1` (stereo partly drawn) [Compound 42], the IC50 is not below 1000 nM. `N[C@H](Cc1ccccc1)[C@H](O)C(=O)NC(c1cccc(C(F)(F)F)c1)c1nnn[nH]1` (stereo partly drawn) [Compound 43]: the concentration for half-maximal inhibition (IC50) is not below 1000 nM.

With `NC(=O)[C@@H](NC(=O)[C@@H](O)[C@H](N)Cc1ccccc1)c1cccc(OC(F)(F)F)c1` [Compound 44], the IC50 is not below 1000 nM.

As to `N[C@H](Cc1ccccc1)[C@H](O)C(=O)NC(C(=O)NO)c1cccc(C(F)(F)F)c1` (stereo partly drawn) [Compound 45], the IC50 lay within 100 to 1000 nM. The compound `N[C@H](Cc1ccc(Cl)cc1)[C@H](O)C(=O)N[C@H](C(=O)O)c1cccc(C(F)(F)F)c1` [Compound 49] yielded an IC50 of less than 100 nM. For `N[C@H](Cc1ccccc1)[C@H](O)C(=O)N[C@H](C(=O)NO)c1cccc(OC(F)(F)F)c1` [Compound 52] the value was not below 1000 nM.

With `N[C@H](Cc1ccccc1)[C@H](O)C(=O)N[C@H](C(=O)NO)c1cccc(OC(F)(F)F)c1` [Compound 53], the IC50 fell in the range of 100 to 1000 nM.

`CS(=O)(=O)NC(=O)C(NC(=O)[C@@H](O)[C@H](N)Cc1ccccc1)c1cccc(C(F)(F)F)c1` (stereo partly drawn) [Compound 55] yielded an IC50 not below 1000 nM. For `N[C@H](Cc1ccccc1)[C@H](O)C(=O)NC(c1cccc(C(F)(F)F)c1)c1n[nH]c(=O)o1` (stereo partly drawn) [Compound 56] the value was less than 100 nM.

Compound `NC(Cc1cccc(OC(F)(F)F)c1)C(O)C(=O)N[C@H](C(=O)O)c1cccc(OC(F)(F)F)c1` (stereo partly drawn) [Compound 57] came in with an IC50 not below 1000 nM. For `N[C@H](Cc1ccccc1OC(F)(F)F)[C@H](O)C(=O)N[C@H](C(=O)O)c1cccc(OC(F)(F)F)c1` [Compound 61], the IC50 was in the range of 100 to 1000 nM.
